In series [1] the test system is TP53 R213X nonsense mutation. The series is described as follows: Dual reporter (lacZ/F-luc, pAC99) stop codon readthrough quantification, R213X, NIH3T3 cells. In kind it is cell-based, mouse. Particulars: 24 h, each drug separately or together. The text has this: Complementary oligonucleotides corresponding to TP53 R213X nonsense mutations and 9 nucleotides on both sides are ligated into the pAC99 dual reporter plasmid, as previously described (Premature stop codons involved in muscular dystrophies show a broad spectrum of readthrough efficiencies in response to gentamicin treatment, Bidou et al, Gene Therapy 1 Apr. 2004, 11(7):619-627). This dual reporter is used to quantify stop-codon readthrough through the measurement of luciferase and beta-galactosidase (internal calibration) activities, as previously described (Stahl et al, Versatile vectors to study recoding: conservation of rules between yeast and mammalian cells. Nucleic Acids Res 1995; 23:1557-60). Readthrough levels for nonsense mutations were analysed in the presence or absence of tested molecules. Cells were seeded in a 6-well plate. The next day, cells are transfected with the reporter plasmid in the presence of JetPei reagent (Invitrogen). The following day, they are rinsed with fresh medium, with or without readthrough inducers. […] Readthrough efficiency was estimated by calculating the ratio of luciferase activity to beta-galactosidase activity obtained with the test construct, with normalisation against an in-frame control construct. […]

Series [2] deals with p53 (endogenous nonsense mutation R213X) in HDQ-P1 cells. The series is described as follows: Western blot of full-length p53 in HDQ-P1 cells. Particulars: HDQ-P1, 48 h. In kind it is cell-based, human. As for the experimental part: HDQ-P1 cells (R213X) were treated with G418 ([…]), or the selected molecules (TLN68 50 μM, TLN1399 50 μM, TLN236 30 μM and TLN309 40 μM), for 48 h. Cells were harvested by treatment with trypsin—EDTA (Invitrogen), lysed in 350 mM NaCl, 50 mM Tris—HCl pH 7.5, 1% NP-40, and protease inhibitor cocktail (Roche) and disrupted by passage through a syringe.
Total proteins were quantified with Bradford reagent (Biorad) and extracts were denatured by incubation in Laemmli buffer for 5 minutes at 90° C. The inventors subjected 30 μg of total protein from HDQ-1 cells to SDS—PAGE in 4/10% Bis—Tris gels. Proteins were transferred onto nitrocellulose membranes, according to the manufacturer's instructions (Biorad). Membranes were saturated by overnight incubation in 5% skimmed milk powder in PBS, and incubated for 1 hour with the primary monoclonal antibody, DO-1 (N-terminal epitope mapping between amino acid residues 11 and 25 of p53; Santa Cruz Biotechnologies, 1/400) or a monoclonal antibody against mouse actin (Millipore, 1/2000). After three washes in PBS supplemented with 0.1% Tween, the membranes were incubated with the secondary antibody [horseradish peroxidase-conjugated anti-mouse IgG ( 1/2500)] for 45 minutes. The membranes were washed five times and chemiluminescence was detected with ECL Prime Western Blotting Detection Reagents (Amersham, GE Healthcare). The signal was quantified with ImageJ software.

Series [3] concerns p53-R213X transcriptional activity. Put plainly: TP53 protein activity assay (p53BS-luc reporter) in H1299 cells. Particulars: H1299 cotransfected with pCMV-R213X, pCMVLacZ, 20 hours, TLN68 20, 50, 80 and 100 mM as printed. The format is cell-based, human. As for the experimental part:
The inventors investigated the transcriptional activity of the p53 protein in H1299, a p53-null cell line. Cells were cotransfected, by the JetPei method, with the p53BS-luc reporter plasmid containing the firefly luciferase gene downstream from seven p53 binding sites, the pCMVLacZ and the pCMVp53R213X containing the p53 cDNA interrupted by the stop mutation R213X. TLN68 ([…]) was added to the medium just before transfection for a total of 20 hours of treatment. Protein extracts were then prepared and enzymatic activities were measured. Transfection with pCMVLacZ was used to normalise transfection efficiency, cell viability and protein extraction. At least six independent transfection experiments were performed for each set of conditions.

The test system of another series is NIH3T3 cells. The series is described as follows: WST1 tetrazolium viability assay, NIH3T3. The format is cell-based, mouse. Particulars: NIH3T3, 24 h, maximal dose used. The method, then: (§1) The inventors tested the effect of TLN68 on viability of NIH3T3, HDQ-P1 and HeLa cell lines by using a tetrazolium salt which is cleaved only by metabolically active cells. Cells were treated or not with a range of TLN68 doses during 24 h and viability was measured.
A general note: Formazan colour is commonly taken as a measure of viable cells.

A further series deals with HDQ-P1 cells. The series is described as follows: WST1 tetrazolium viability assay, HDQ-P1. In kind it is cell-based, human. As to conditions: HDQ-P1, 24 h, maximal dose used. As for the experimental part:
as §1

Another series has as its system nonsense mutation W1268X. The series is described as follows: pAC99 dual reporter readthrough in HeLa cells, W1268X. In kind it is cell-based, human. As to conditions: 24 hours. The method, then: (§2) Different compounds of the invention have been tested for their ability to induce readthrough on the nonsense mutation W1268X or R213X in HeLa cells.
(§3) To this aim the inventors used the pAC99 dual reporter plasmid. This dual reporter is used to quantify stop-codon readthrough through the measurement of luciferase and beta-galactosidase (internal normalisation) activities. Readthrough levels for nonsense mutations were analysed in the presence or absence of tested molecules. Cells are seeded in a 6-well plate. The next day, cells are transfected with the reporter plasmid using the JetPei reagent (Invitrogen). The following day, they are rinsed with fresh medium, with or without readthrough inducers. Cells were harvested 24 hours later, with trypsin—EDTA (Invitrogen), lysed with Glo lysis buffer (Promega) and beta-galactosidase and luciferase activities were assayed as previously described. Readthrough efficiency was estimated by calculating the ratio of luciferase activity to beta-galactosidase activity obtained with the test construct, with normalisation against an in-frame control construct. At least five independent transfection experiments were performed for each assay.

In a further series the test system is nonsense mutation R213X. Put plainly: pAC99 dual reporter readthrough in HeLa cells, R213X. Particulars: 24 hours. The format is cell-based, human. As for the experimental part:
as §2, §3

For the molecule `Cc1nc(NC(=N)N)nc2ccccc12` [TLN68], the readthrough level in series [1] amounted to 11%. The “level of induction of full-length p53 compared with G418” value in series [2] (G418 10 and 20 mM) was “even higher to the one obtained in presence of G418”. For the same molecule, the “production of the full-length p53 (western blot)” value in series [2] (TLN68 50 μM, TLN236 30 μM, TLN309 40 μM) was “stimulate the production of the full-length p53”. The “increase of the p53-dependent luciferase” value in series [3] is recorded as 3.5 fold. Besides, the values for the viable cells in the series with NIH3T3 cells and with HDQ-P1 cells were 80% and 70%, respectively. Also, the “Inducting factor of readthrough as compared to untreated cells (measured on nonsense mutation W1268X)” value in the series on nonsense mutation W1268X was 9. Moreover, in the series on nonsense mutation R213X, the “Inducting factor of readthrough as compared to untreated cells (measured on nonsense mutation R213X)” value worked out at 14.

The record behind these values is patent publication US20230183187A1, “QUINAZOLINE COMPOUNDS AS INHIBITORS OF PREMATURE TERMINATION CODONS” (CENTRE NATIONAL DE LA RECHERCHE SCIENTIFIQUE, priority 2020, published 2023).
